The source of these data is US11279703B2, “Fused pyrimidine compounds as BRD4 and JAK2 dual inhibitors and methods for use thereof” (APTOSE BIOSCIENCES INC., priority 2016, dated 2022).

Experiment [1] concerns the target BRD4-BD1 (Homo sapiens (Human), UniProt O60885). As to the kind of experiment: AlphaLisa bromodomain binding assay, BRD4-BD1. Particulars: Table 6; read-out: BRD4(1) IC50. On the technique in general: Bead proximity is the source of the signal in Alpha formats.
Experiment [2] has as its target BRDT-BD1 (Homo sapiens (Human), UniProt Q58F21). The experiment is described as follows: AlphaLisa bromodomain binding assay, BRDT-BD1. Particulars: Table 6; read-out: BRDT(1) IC50. From the text: (§1) An AlphaLisa assay was used to observe bromodomain binding and measure IC50s for the compounds disclosed herein. An AlphaLisa assay is a bead-based assay used to detect interactions between bromodomains and polyacetylated histone peptides. Donor and acceptor beads bound to target and ligand are brought into proximity by this protein-protein interaction.
(§2) Equipment Required • 1. […] Plate centrifuge • 3. Plate shaker • 4. […] Single channel and multi-channel pipettes • 6. Microplate reader (Pherastar)
(§3) Stock and Final Assay Concentrations (FAC) • 1. All reference and test compounds are made at a concentration of 10 mM in DMSO. Compounds are serially diluted in DMSO and a FAC starting from 10 μM to 10 point 3 fold serial dilutions is arrived. FAC of DMSO is 1%. • 2. Enzyme stock and FAC
(§4) Biotinylated substrate (Acetylated histone H4, biotinylated substrate—cat no. AS64989-025, Anaspec) stock and FAC
(§5) • 4. Acceptor and donor beads stock and FAC
(§6) Buffers • For the enzyme and substrate dilution following buffer is used (for 50 ml) • HEPES: 50 mM 2.5 ml • NaCl: 25 mM 1.25 ml • DTT: 10 mM 0.05 ml • BSA: 0.1% 0.05 g • MilliQ water: 45.7 ml • For dilution of acceptor and donor beads AlphaLISA 5× epigenetics Buffer Perkin Elmer (Cat: AL008C) is used at 1× concentration.
(§7) Procedure • 1. […] Tap the plate gently • 3. […] Cover with plate sealer • 5. […] Incubate the plate at room temperature for 10 minutes • 7. Add 10 μl of the substrate • 8. Cover with plate sealer • 9. […] Cover with plate sealer • 14. […] Cover with plate sealer • 18.
(§8) The percent inhibition is calculated in the excel analysis template and the IC50 values are subsequently determined using a sigmoidal dose-response curve (variable slope) using GraphPad Prism® 5 software.

Experiment [3] addresses BRD3-BD1 (Homo sapiens (Human), UniProt Q15059). The experiment is described as follows: AlphaLisa bromodomain binding assay, BRD3-BD1. Particulars: Table 6; read-out: BRD3(1) IC50.
Text: as §1, §2, §3, §4, §5, §6, §7, §8

Experiment [4] addresses BRD2-BD1 (Homo sapiens (Human), UniProt P25440). As to the kind of experiment: AlphaLisa bromodomain binding assay, BRD2-BD1. Particulars: Table 6; read-out: BRD2(1) IC50.
Text: as §1, §2, §3, §4, §5, §6, §7, §8

The target in experiment [5] is BRD4-BD2 (Homo sapiens (Human), UniProt O60885). The experiment is described as follows: AlphaLisa bromodomain binding assay, BRD4-BD2. Particulars: Table 6; read-out: BRD4(2) IC50.
Text: as §1, §2, §3, §4, §5, §6, §7, §8

Experiment [6] concerns the target JAK1 (Homo sapiens (Human), UniProt P23458). The experiment is described as follows: HTRF kinase assay, JAK1. The experiment is classed as biochemical. Particulars: Table 6.
Text: (§9) A kinase assay with HTRF was used to observe JAK activity and calculate the IC50s of compounds disclosed herein. HTRF is an enzymatic assay used to determine the amount of phosphorylated peptide. FRET (Fluorescence Resonance Energy Transfer) is based on the transfer of energy between two fluorophores—a donor and an acceptor—when in close proximity. Molecular interactions between biomolecules can be assessed by coupling each partner with a fluorescent label and by detecting the level of energy transfer. The amount of phopshorylated peptide can be detected using a combination of a Eu 3+Cryptate labeled anti-phospho residue antibody, SA-XL665 and a biotinylated substrate. The signal is proportional to the concentration of phospho-residues.
(§10) Equipment Required • 1. […] Plate centrifuge • 3. Plate shaker • 4. […] Single channel and multi-channel pipettes • 6. Microplate reader (Pherastar)]
(§11) Stock and Final Assay Concentrations (FAC) • 1. All reference and test compounds are made at a concentration of 10 mM in DMSO. Compounds are serially diluted in DMSO and a FAC starting from 10 μM to 10 point 3 fold serial dilutions is arrived. For Ruxolitinib the starting FAC is 1 μM. FAC of DMSO is 1%. • 2. Enzyme stock and FAC
(§12) • JAK-1: Invtirogen Cat: PR8767C • JAK-2: Invtirogen Cat: PR7820B • JAK-3: Invtirogen Cat: PR7507B • 3. Substrate (synthetic peptide-Biotinylated-N-terminal tag-[…] from Biopeptide) stock and FAC
(§13) • Adenosine 5′-triphosphate disodium salt hydrate: Sigma Cat: A26209 • 5. […] Buffers • Base buffer (for 50 ml)
(§14) • HTRF buffer: • 50 mM Tris-HCl, pH—7.5 • 100 mM NaCl • 0.1% BSA • 0.05% Tween20 • 0.5 mM EDTA
(§15) To a 384 well black-plate: • 1. Add 17 μL of the buffer to each well of the 384-well black plate • 2. […] Add 5 μl of the enzyme to each well of the plate • 4. Add 10 μl of the substrate and ATP mix to all the wells • 5. Cover with plate sealer • 6. […] Incubate at room temperature for 1 hour on shaker • 8. […] Add 37.5 μL of the HTRF mix to these wells. • 9. Incubate the plate at room temperature on shaker for 45 minutes. • 10.
as §8
Background: Time-resolved FRET reads energy transfer from a long-lived donor to a nearby acceptor.

For experiment [7], the target named is JAK2 (Homo sapiens (Human), UniProt O60674). The experiment is described as follows: HTRF kinase assay, JAK2. In kind it is biochemical. Particulars: Table 6.
Sequence of JAK2 (O60674 whole entry): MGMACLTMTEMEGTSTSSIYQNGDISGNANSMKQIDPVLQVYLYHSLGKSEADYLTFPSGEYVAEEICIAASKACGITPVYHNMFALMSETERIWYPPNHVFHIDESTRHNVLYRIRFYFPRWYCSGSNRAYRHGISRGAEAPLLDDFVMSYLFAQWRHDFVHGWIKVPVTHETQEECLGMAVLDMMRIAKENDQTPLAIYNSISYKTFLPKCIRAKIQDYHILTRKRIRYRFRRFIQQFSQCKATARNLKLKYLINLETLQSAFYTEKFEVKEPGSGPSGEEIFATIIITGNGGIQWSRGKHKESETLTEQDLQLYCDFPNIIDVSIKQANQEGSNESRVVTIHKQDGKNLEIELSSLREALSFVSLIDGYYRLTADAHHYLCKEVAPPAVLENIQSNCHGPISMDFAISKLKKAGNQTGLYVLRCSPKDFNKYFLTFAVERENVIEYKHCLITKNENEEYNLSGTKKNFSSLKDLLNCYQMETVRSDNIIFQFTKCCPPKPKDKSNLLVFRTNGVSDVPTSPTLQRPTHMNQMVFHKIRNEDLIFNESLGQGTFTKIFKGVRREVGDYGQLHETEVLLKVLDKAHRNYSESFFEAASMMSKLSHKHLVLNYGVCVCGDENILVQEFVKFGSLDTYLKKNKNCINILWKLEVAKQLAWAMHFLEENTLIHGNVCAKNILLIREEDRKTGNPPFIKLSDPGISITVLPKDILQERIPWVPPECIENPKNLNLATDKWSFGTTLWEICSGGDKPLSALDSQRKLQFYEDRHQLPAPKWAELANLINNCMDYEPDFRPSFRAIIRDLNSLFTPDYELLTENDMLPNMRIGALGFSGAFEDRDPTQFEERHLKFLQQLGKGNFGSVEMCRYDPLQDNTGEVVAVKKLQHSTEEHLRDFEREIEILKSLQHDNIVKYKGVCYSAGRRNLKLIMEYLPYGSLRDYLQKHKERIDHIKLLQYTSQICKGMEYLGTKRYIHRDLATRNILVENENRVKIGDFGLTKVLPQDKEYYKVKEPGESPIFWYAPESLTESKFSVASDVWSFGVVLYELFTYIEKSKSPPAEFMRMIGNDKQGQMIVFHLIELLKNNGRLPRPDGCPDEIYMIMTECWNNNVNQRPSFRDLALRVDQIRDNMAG
Experiment [8] concerns the target JAK3 (Homo sapiens (Human), UniProt P52333). As to the kind of experiment: HTRF kinase assay, JAK3. The experiment is classed as biochemical. Particulars: Table 6.
Text: as §9, §10, §11, §12, §13, §14, §15, §8

Broadly, the IC50 is the concentration that inhibits the measured activity by half.

Sequence of JAK1 (P23458 whole entry): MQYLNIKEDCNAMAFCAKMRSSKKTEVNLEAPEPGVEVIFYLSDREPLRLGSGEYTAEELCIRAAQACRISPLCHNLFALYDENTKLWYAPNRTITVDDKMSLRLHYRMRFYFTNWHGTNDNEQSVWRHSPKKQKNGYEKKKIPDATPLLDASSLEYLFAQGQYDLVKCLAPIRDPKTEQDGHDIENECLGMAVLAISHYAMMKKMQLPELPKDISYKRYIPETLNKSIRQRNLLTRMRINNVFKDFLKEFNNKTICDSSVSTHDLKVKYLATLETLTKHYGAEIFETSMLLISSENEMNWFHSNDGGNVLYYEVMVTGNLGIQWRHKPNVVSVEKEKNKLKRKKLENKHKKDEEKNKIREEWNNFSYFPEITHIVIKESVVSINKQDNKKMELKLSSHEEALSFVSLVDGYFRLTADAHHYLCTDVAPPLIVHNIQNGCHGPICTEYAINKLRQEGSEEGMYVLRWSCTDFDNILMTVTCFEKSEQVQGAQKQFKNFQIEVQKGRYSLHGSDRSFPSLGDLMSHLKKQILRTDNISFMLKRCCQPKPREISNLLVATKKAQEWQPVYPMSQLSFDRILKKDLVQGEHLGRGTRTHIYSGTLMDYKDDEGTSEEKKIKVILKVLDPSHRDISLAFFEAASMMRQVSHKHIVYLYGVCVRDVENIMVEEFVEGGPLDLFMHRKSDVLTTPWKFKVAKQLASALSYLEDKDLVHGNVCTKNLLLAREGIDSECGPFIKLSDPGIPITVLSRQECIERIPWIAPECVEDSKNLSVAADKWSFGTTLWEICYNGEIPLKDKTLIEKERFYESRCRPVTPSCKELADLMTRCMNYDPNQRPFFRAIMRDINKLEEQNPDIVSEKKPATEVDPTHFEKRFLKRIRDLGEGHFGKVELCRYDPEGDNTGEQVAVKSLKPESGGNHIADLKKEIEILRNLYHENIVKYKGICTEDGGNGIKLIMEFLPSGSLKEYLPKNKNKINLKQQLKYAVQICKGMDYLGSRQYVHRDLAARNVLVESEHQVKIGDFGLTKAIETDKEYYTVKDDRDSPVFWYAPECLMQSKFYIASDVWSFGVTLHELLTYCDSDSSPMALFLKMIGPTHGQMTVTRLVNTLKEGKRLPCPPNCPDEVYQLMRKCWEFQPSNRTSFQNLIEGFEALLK
Sequence of JAK3 (P52333 whole entry): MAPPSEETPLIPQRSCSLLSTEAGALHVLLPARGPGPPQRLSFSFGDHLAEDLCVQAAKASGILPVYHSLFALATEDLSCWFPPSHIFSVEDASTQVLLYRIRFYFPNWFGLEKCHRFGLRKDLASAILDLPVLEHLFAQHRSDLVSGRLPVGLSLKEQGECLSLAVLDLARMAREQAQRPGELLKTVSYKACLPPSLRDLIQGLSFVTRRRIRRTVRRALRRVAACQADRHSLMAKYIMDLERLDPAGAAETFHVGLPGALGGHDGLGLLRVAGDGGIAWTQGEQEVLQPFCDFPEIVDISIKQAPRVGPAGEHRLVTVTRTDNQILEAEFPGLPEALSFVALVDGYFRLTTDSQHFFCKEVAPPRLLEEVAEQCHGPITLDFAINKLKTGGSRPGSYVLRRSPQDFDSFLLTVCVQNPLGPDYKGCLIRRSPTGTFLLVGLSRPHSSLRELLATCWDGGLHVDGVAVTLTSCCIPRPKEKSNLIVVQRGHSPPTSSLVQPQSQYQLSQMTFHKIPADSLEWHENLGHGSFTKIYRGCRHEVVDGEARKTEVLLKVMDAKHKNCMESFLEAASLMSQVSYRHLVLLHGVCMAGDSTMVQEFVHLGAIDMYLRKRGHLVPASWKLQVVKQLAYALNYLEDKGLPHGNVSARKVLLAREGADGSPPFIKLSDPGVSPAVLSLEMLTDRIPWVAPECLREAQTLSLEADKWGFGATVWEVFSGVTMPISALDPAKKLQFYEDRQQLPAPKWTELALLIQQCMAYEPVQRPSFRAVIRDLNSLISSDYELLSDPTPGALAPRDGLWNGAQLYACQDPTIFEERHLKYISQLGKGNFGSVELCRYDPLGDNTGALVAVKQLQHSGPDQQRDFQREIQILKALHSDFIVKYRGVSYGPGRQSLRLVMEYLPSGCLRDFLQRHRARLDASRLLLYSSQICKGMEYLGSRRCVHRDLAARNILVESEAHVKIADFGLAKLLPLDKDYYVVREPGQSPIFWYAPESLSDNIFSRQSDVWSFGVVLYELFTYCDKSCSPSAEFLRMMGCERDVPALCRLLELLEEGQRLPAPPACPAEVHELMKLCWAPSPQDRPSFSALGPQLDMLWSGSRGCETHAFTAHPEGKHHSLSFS
Sequence of BRD3-BD1 (Q15059 34-140): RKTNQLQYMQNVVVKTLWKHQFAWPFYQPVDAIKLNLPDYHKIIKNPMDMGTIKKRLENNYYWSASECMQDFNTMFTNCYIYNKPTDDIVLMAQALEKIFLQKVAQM
Sequence of BRD2-BD1 (P25440 74-180): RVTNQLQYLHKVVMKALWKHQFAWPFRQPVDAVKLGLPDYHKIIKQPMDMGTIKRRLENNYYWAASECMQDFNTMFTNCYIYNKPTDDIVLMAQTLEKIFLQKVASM

For the molecule `Cc1ccc(Nc2nc(Nc3ccc(N4CCN(C)CC4)cc3)nc3ccccc23)cc1NS(=O)(=O)C(C)(C)C`, the half-inhibitory concentration (IC50) worked out at 470 nM in experiment [1]; 1800 nM in experiment [2]; 3200 nM in experiment [3]; 636 nM in experiment [4]; 1130 nM in experiment [5].
Consider `Cc1cnc(Nc2ccc(C(=O)NC3CCN(C)CC3)c(F)c2)nc1Nc1ccc2c(c1)N(S(=O)(=O)C(C)(C)C)CC2`, for which the IC50 in experiment [1] turned out to be 87 nM; in experiment [6], 1010 nM; in experiment [7] it was 24 nM; in experiment [2], 131 nM; in experiment [3], 92 nM; in experiment [4] it was 157 nM. Further, in experiment [5], the IC50 was 30 nM.
Turning to `Cc1cnc(Nc2ccc(OCCN3CCCC3)cc2)nc1Nc1cccc(NS(=O)(=O)C(C)(C)C)c1`, the IC50 in experiment [1] is 420 nM; in experiment [7] it was 2.3 nM; in experiment [2] it was 638 nM; in experiment [3], 853 nM; in experiment [4], 682 nM; in experiment [5] it was 451 nM. Moreover, the 50% inhibitory concentration (IC50) in experiment [8] is 185 nM.
In the case of `COc1cc(Nc2nc(Nc3ccc(N4CCN(C)CC4)cc3)nc3ccccc23)ccc1Cl`, the IC50 in experiment [1] came to 6300 nM; in experiment [3], 8400 nM; in experiment [4] it was 790 nM; in experiment [5], 5300 nM.
In the case of `CC(C)(C)S(=O)(=O)Nc1cccc(-n2ccc3cnc(Nc4ccc(C5CCNCC5)cc4)nc32)c1`, the IC50 was determined as 676 nM in experiment [1]; 473 nM in experiment [6]; 322 nM in experiment [2]; 570 nM in experiment [3]; 1400 nM in experiment [4]; 325 nM in experiment [5]. For the same molecule, in experiment [8], the half-inhibitory concentration (IC50) amounted to 100 nM.
Take `CC(C)(C)S(=O)(=O)Nc1cccc(Nc2nc(NC3CCNCC3)nc3sccc23)c1` [drawing 203]: the half-maximal inhibitory concentration (IC50) was determined as 94 nM in experiment [1], 248 nM in experiment [3], 458 nM in experiment [4] and 309 nM in experiment [5].
Turning to `CN1CCC(Nc2nc(Nc3ccc4c(c3)N(S(=O)(=O)C(C)(C)C)CC4)c3ccsc3n2)CC1` [drawing 204], the half-maximal inhibitory concentration (IC50) in experiment [1] came out at 160 nM; in experiment [3], 331 nM; in experiment [4], 776 nM; in experiment [5], 293 nM.
As for `Cc1cnc(Nc2ccc(N3CCN(C)CC3)cc2)nc1Nc1cccc(NS(=O)(=O)C(C)(C)C)c1` [drawing 205], the IC50 in experiment [1] worked out at 210 nM; in experiment [7], 10 nM; in experiment [3], 213 nM; in experiment [4] it was 373 nM; in experiment [5], 13 nM.
For `CN1CCN(c2ccc(Nc3nc4c(c(Nc5cccc(NS(=O)(=O)C(C)(C)C)c5)n3)COC4)cc2)CC1` [drawing 206], the IC50 in experiment [3] turned out to be 2470 nM; in experiment [4], 1770 nM; in experiment [5] it was 1000 nM.
Turning to `Cc1cnc(Nc2ccc(N3CCN(C)CC3)cc2)nc1Nc1cccc(NS(=O)(=O)C(C)(C)C)c1` [drawing 245], the IC50 was 118 nM in experiment [1]; 4 nM in experiment [7]; 230 nM in experiment [2]; 366 nM in experiment [3]; 448 nM in experiment [4]; 73 nM in experiment [5].
On to `Cc1cnc(Nc2ccc(N3CCN(C)CC3)c(F)c2)nc1Nc1ccc2c(c1)N(S(=O)(=O)C(C)(C)C)CC2` [drawing 246], for which the half-maximal inhibitory concentration (IC50) in experiment [1] amounted to 93.4 nM; in experiment [2], 228 nM; in experiment [3], 183 nM; in experiment [4], 254 nM; in experiment [5], 112 nM; in experiment [8], 313 nM.
For `Cc1cnc(Nc2ccc(N3CCN(C)CC3)cc2)nc1Nc1cccc(NS(=O)(=O)C(C)(C)C)c1` [drawing 271], the concentration for half-maximal inhibition (IC50) in experiment [1] was determined as 220 nM; in experiment [7], 7 nM; in experiment [2], 230 nM; in experiment [3] it was 366 nM; in experiment [4], 448 nM; in experiment [5], 73 nM.
For `CN1CCN(c2ccc(Nc3ncc4ccn(-c5cccc(NS(=O)(=O)C6CC6)c5)c4n3)cc2)CC1` [drawing 297], the half-inhibitory concentration (IC50) in experiment [1] was found to be 1460 nM; in experiment [7], 4.3 nM; in experiment [2], 2630 nM; in experiment [3], 1740 nM; in experiment [4], 6210 nM; in experiment [5], 1350 nM. The half-maximal inhibitory concentration (IC50) in experiment [8] came out at 31 nM.
As to `CN(C)C1CCN(c2ccc(Nc3ncc4ccn(-c5cccc(NS(=O)(=O)C(C)(C)C)c5)c4n3)cc2)CC1` [drawing 409], the results for the IC50 in experiment [1] and in experiment [7] were 229 nM and 6.5 nM, respectively.
For `CC(C)(C)S(=O)(=O)Nc1cccc(-n2ccc3cnc(Nc4ccc5c(c4)CC4CNCCN54)nc32)c1` (centres unmarked) [drawing 411], the IC50 in experiment [1] is 306 nM; in experiment [7], 13 nM.
Taken in the same sequence, the figures for `CC(C)(C)S(=O)(=O)Nc1cc(-n2ccc3cnc(Nc4ccc(N5CCNCC5)c(F)c4)nc32)ccc1F` [drawing 430] were 125 nM and 76 nM.
As to `CC(C)(C)S(=O)(=O)Nc1cccc(-n2ccc3cnc(Nc4ccc(N5CCNCC5)c(F)c4)nc32)c1` [drawing 431], the IC50 amounted to 248 nM in experiment [1] and 9.6 nM in experiment [7].
Taken in the same sequence, the figures for `CC(C)(C)S(=O)(=O)Nc1cccc(-n2ccc3cnc(Nc4ccc(N5CCNCC5)c(F)c4)nc32)c1` [drawing 432] were 174 nM and 8 nM.
The like results for `CN(C)C1CCN2c3ccc(Nc4ncc5ccn(-c6cccc(NS(=O)(=O)C(C)(C)C)c6)c5n4)cc3CC2C1` (centres unmarked) [drawing 444] were, in that order, 268 nM and 8 nM.
Taken in the same sequence, the figures for `CN(C)C1CCN2c3ccc(Nc4ncc5ccn(-c6cccc(NS(=O)(=O)C(C)(C)C)c6)c5n4)cc3CC2C1` (centres unmarked) [drawing 445] were 105 nM and 12 nM.
As to `CNC1CCN(c2ccc(Nc3ncc4ccn(-c5ccc(F)c(NS(=O)(=O)C(C)(C)C)c5)c4n3)cc2F)CC1` [drawing 457], the half-inhibitory concentration (IC50) came to 150 nM in experiment [1]; 9900 nM in experiment [6]; 52 nM in experiment [7]; 302 nM in experiment [2]; 420 nM in experiment [4]; 88 nM in experiment [5]. The half-inhibitory concentration (IC50) in experiment [8] was found to be 608 nM.
As to `CNC1CCN(c2ccc(Nc3ncc4scc(-c5ccc(F)c(NS(=O)(=O)C(C)(C)C)c5)c4n3)cc2F)CC1` [drawing 459], the results for the concentration for half-maximal inhibition (IC50) in experiment [1] and in experiment [7] were 308 nM and 21 nM, respectively.
Turning to `CNCCOc1ccc(Nc2ncc3ccn(-c4cccc(NS(=O)(=O)C(C)(C)C)c4)c3n2)cc1F` [drawing 460], the half-inhibitory concentration (IC50) in experiment [1] is 2300 nM; in experiment [7], 50 nM.
The like results for `CNCCOc1ccc(Nc2ncc3ccn(-c4cccc(NS(=O)(=O)C(C)(C)C)c4)c3n2)cc1F` [drawing 467] were, in that order, 1300 nM and 79 nM.
